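A five-concentration, 48-hour dose response in 96-well plates underlies each endpoint, interpolated linearly between surrounding concentrations. TGI: concentration producing complete growth inhibition.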
Columns and labels:
Assay in all cases: growth of human tumour cells (NCI), 48 h
HCT-15 colon = system: HCT-15 colon
IGROV1 ovarian = system: IGROV1 ovarian
DU-145 prostate = system: DU-145 prostate
HOP-92 NSCLC = system: HOP-92 NSCLC
LOX IMVI melanoma = system: LOX IMVI melanoma
SN12C renal = system: SN12C renal
MOLT-4 leukemia = system: MOLT-4 leukemia
SK-OV-3 ovarian = system: SK-OV-3 ovarian
SR leukemia = system: SR leukemia
RXF 393 renal = system: RXF 393 renal
MDA-N = system: MDA-N
OVCAR-8 ovarian = system: OVCAR-8 ovarian
A549 NSCLC = system: A549 NSCLC
NCI-H226 lung = system: NCI-H226 lung
MCF7 breast = system: MCF7 breast
K-562 leukemia = system: K-562 leukemia
OVCAR-4 ovarian = system: OVCAR-4 ovarian
UACC-62 melanoma = system: UACC-62 melanoma
SNB-75 CNS = system: SNB-75 CNS
T-47D breast = system: T-47D breast

Structure (SMILES)	TGI (HCT-15 colon) [µM]	TGI (IGROV1 ovarian) [µM]	TGI (DU-145 prostate) [µM]	TGI (HOP-92 NSCLC) [µM]	TGI (LOX IMVI melanoma) [µM]	TGI (SN12C renal) [µM]	TGI (MOLT-4 leukemia) [µM]	TGI (SK-OV-3 ovarian) [µM]	TGI (SR leukemia) [µM]	TGI (RXF 393 renal) [µM]	TGI (MDA-N) [µM]	TGI (OVCAR-8 ovarian) [µM]	TGI (A549 NSCLC) [µM]	TGI (NCI-H226 lung) [µM]	TGI (MCF7 breast) [µM]	TGI (K-562 leukemia) [µM]	TGI (OVCAR-4 ovarian) [µM]	TGI (UACC-62 melanoma) [µM]	TGI (SNB-75 CNS) [µM]	TGI (T-47D breast) [µM]
CC(C)(C)OC(=O)[C@@H]1CCC(=S)N1Cc1ccccc1	> 100	> 100	> 100	> 100	> 100	> 100	> 100	> 100	> 100	> 100	> 100	> 100	> 100	> 100	> 100	> 100	> 100	> 100	> 100	–
N#CC(/C(=N\NC(=O)c1ccncc1)C(=O)Nc1ccc([N+](=O)[O-])cc1[N+](=O)[O-])c1nc(-c2ccc(Br)cc2)cs1 (stereo not given)	> 100	> 100	–	–	> 100	–	> 100	> 100	–	–	–	> 100	> 100	–	–	> 100	> 100	> 100	> 100	–
CCSC1=N/C(=C\c2ccco2)C(NN)=N1	> 50	> 50	> 50	> 50	> 50	> 50	> 50	> 50	–	> 50	> 50	> 50	> 50	> 50	–	> 50	–	> 50	> 50	> 50
CC(C)C1C(=O)NC(CO)Cc2c[nH]c3c(C(c4c[nH]c5ccccc45)C(O)CO)ccc(c23)N1C (stereo not given)	–	> 100	–	> 100	> 100	> 100	> 100	> 100	> 100	> 100	–	> 100	> 100	–	–	> 100	> 100	> 100	> 100	–
O=c1c(-c2ccccc2)c2oc(c1-c1ccccc1)CS(=O)(=O)CCC2	32.9	> 100	–	> 100	45.8	44.2	> 100	> 100	> 100	29.5	–	> 100	> 100	80.9	–	> 100	–	54.3	–	–
CCOC(=O)C[C@@H](C)[C@]1(C(=O)OC)CCCC1=O	> 100	> 100	–	> 100	> 61.5	> 100	> 100	> 100	65.6	> 100	–	> 100	> 100	> 100	–	> 100	> 100	> 100	> 100	–
O=C(/C=C/c1ccc(O)c(O)c1)OC1C[C@@](O)(C(=O)O)C[C@@H](O)[C@H]1OC(=O)/C=C/c1ccc(O)c(O)c1 (stereo not given in full)	> 100	> 100	–	> 100	> 100	–	> 100	> 100	> 100	> 100	–	> 100	> 100	> 100	–	> 100	> 100	> 100	–	–
CC1(C)O[C@H]([C@H](O)c2nnc3ccc(Cl)nn23)[C@@H]([C@H]2COC(C)(C)O2)O1	> 100	> 100	> 100	–	> 100	> 100	> 100	> 100	–	> 100	> 100	> 100	> 100	–	> 100	–	> 100	> 100	–	> 100
CCOC(=O)C(NC(=O)C(CCCCNP(=O)(OCC)OCC)NC(=O)C(C)NC(C)=O)C(C)C (stereo not given)	> 100	> 100	> 100	> 100	> 100	> 100	> 100	–	> 100	> 100	> 100	> 100	> 100	> 100	> 100	> 100	> 100	–	> 100	–
COc1ccc(/C=N/N=C(\N)NO)c(Cl)c1O	> 100	> 100	–	> 100	> 100	> 100	> 100	> 100	–	> 100	–	> 100	49.6	38.6	–	> 100	> 100	> 100	–	–
Cc1ccc2[nH]c3c(C)c4c(c(C)c3c2c1)CN(C)C=C4	28.2	7.38	–	4.74	17	0.682	> 40.6	7.04	> 36.8	12.9	–	9.01	2.99	2.13	–	> 38.9	6.76	3.15	2.27	–
O=C(CSc1nnc(Cc2ccccc2)o1)Nc1cccc(Cl)c1	> 100	> 100	–	–	> 100	> 100	> 100	> 100	–	> 100	–	> 100	> 100	> 100	–	> 100	> 100	–	89.5	–
Cc1[nH]n(C2=NCCN2)c(=O)c1C	> 100	> 100	–	> 100	> 100	–	> 100	> 100	> 100	> 100	–	> 100	> 100	> 100	> 100	> 100	> 100	> 100	> 100	> 100
Cc1nnc2sc(Cl)nn12	45.6	30.7	> 100	–	28.5	> 100	29.3	31	–	–	48.9	> 100	72.8	86.2	29.5	72.9	34.3	18.9	> 100	73.4
COc1ccc2c(c1)CCN=C2Cc1ccccc1CCCl	> 100	> 100	> 100	> 100	–	72.5	> 100	> 100	> 100	71.7	–	67.9	> 100	83.5	> 100	> 100	> 100	52.7	> 100	> 100
COC(=O)C(Cc1ccccc1)NC(=O)C(CCC(=O)OCc1ccccc1)NC(=O)OC(C)(C)C (stereo not given)	> 100	> 100	> 100	> 100	> 100	> 100	> 100	> 100	> 100	> 100	–	> 100	> 100	> 100	> 100	> 100	> 100	> 100	> 100	> 100
CC1(C)Oc2ccc3c(=O)c(-c4ccccc4)c(-c4ccccc4)oc3c2C1C(=O)O (stereo not given)	> 100	> 100	> 100	–	–	> 100	> 100	> 100	–	> 100	> 100	> 100	> 100	> 100	> 100	> 100	> 100	> 100	–	> 100
CCOC(=O)C1(C#N)C(c2ccccc2)CC(O)(c2ccc([N+](=O)[O-])cc2)C(C(=O)c2ccc([N+](=O)[O-])cc2)C1c1ccccc1 (stereo not given)	> 100	> 100	–	–	> 100	> 100	> 100	> 100	> 100	42.6	–	> 100	> 100	> 100	–	> 100	> 100	> 100	96.5	–
Cc1n[n+](CC(=O)c2ccccc2)c2sc(N)nn12	> 100	> 100	> 100	–	> 100	> 100	> 100	> 100	–	> 100	> 100	> 100	> 100	> 100	> 100	> 100	> 100	> 100	> 100	> 100
CC(=O)NC(CCCCN(Cc1ccccc1)C(=O)NCCCl)C(=O)NCc1ccccc1 (stereo not given)	> 100	> 100	–	> 100	–	> 100	> 100	–	> 100	–	–	> 100	> 100	> 100	–	> 100	> 100	> 100	> 100	–
CCOC(=O)[C@@H]1OC(c2ccccc2)O[C@H]1C(=O)OCC	> 100	> 100	> 100	> 100	> 100	> 100	> 100	> 100	> 100	–	> 100	> 100	> 100	> 100	> 100	> 100	> 100	> 100	> 100	–
CCC(=O)C1(N2CCOCC2)CCN(CCCC(=O)c2ccc(F)cc2)CC1	> 100	> 100	> 100	–	> 100	> 100	> 100	> 100	–	> 100	> 100	> 100	> 100	> 100	> 100	> 100	> 100	> 100	> 100	> 100
COc1c(C)c2c(c3c1c(=O)c1ccccc1n3C)C=CC(C)(C)O2	> 100	> 100	–	88.8	32.9	> 100	67.8	43.1	58.6	> 100	–	91.5	26.7	> 100	–	66	–	33.4	62.8	–
CCOc1cc2ccc3c4cc(OC)c(OC)cc4cnc3c2cc1OCC	> 100	> 100	–	–	–	> 100	> 100	> 100	–	–	–	> 100	> 100	–	–	> 100	> 100	> 100	> 100	–
O=c1cc(-c2ccccc2)oc2cc(OCC(O)COc3ccc4c(=O)cc(-c5ccccc5)oc4c3)ccc12	> 100	> 100	–	95.5	> 100	–	> 100	76.7	–	–	–	> 100	> 100	–	–	> 100	–	> 100	–	–
COc1cc(C2SCC(=O)N2Cc2ccccc2)cc(OC)c1OC (stereo not given)	> 100	> 100	> 100	71.8	> 100	> 100	> 100	> 100	> 100	–	> 100	> 100	> 100	> 100	> 100	> 100	> 100	> 100	–	–
CC1=[N+]([O-])C(C)(C)N(N=O)C1(C)C	> 10	–	> 10	> 10	–	> 10	> 10	–	–	> 10	> 10	> 10	> 10	> 10	> 10	> 10	> 10	–	–	> 10
Cc1cccc(NC(=S)Nc2ccc([N+](=O)[O-])cc2)n1	> 100	> 100	> 100	> 100	> 100	–	> 100	> 100	> 100	> 100	–	> 100	–	> 100	> 100	> 100	> 100	> 100	> 100	> 100
O=C1CCCC2=C1CC1=C(CCCC1=O)N2c1ccccc1C(=O)O	> 100	> 100	–	> 100	> 100	> 100	> 100	> 100	> 100	> 100	–	> 100	> 100	> 100	> 100	> 100	> 100	> 100	> 100	–
